Assay [1] addresses T1, Kappa-type opioid receptor (Homo sapiens, UniProt P41145). The assay can be described thus: Agonist activity at human kappa opioid receptor expressed in CHO-K1 cells assessed as inhibition of forskolin-induced cAMP accumulation by TR-FRET assay. Format: functional, cell-based. For orientation: cAMP levels reflect the balance of adenylyl cyclase and phosphodiesterase activity.

The target in assay [2] is T2, Mu-type opioid receptor (Homo sapiens, UniProt P35372). Description: Agonist activity at human mu opioid receptor expressed in CHO-dhfr(-) cells assessed as inhibition of forskolin-induced cAMP accumulation by TR-FRET assay. Format: functional, cell-based.
In assay [3] the target is T1, Kappa-type opioid receptor. Description: Agonist activity at human kappa opioid receptor.
The species entered for a further assay is Homo sapiens. Description: Selectivity for human kappa opioid receptor over human mu opioid receptor.
The subject of the next assay is Rattus norvegicus. Description: Anti-allodynic activity in rat model of partial sciatic nerve ligation-induced allodynia assessed as effect on withdrawal threshold at 3 and 5 mg/kg, iv dosed 7 days after ligation and measured 30 mins post dose by up-down method with von Frey filaments assay. Format: functional, organism-based.
The subject of a further assay is Mus musculus. Description: Anti-pruritic activity in mouse assessed as reduction in substance P-induced scratching behavior at 3 mg/kg, ip dosed 15 mins before substance P injection and measured for 30 mins post substance P challenge by MicroAct based method. Format: functional, organism-based.
In assay [4] the target is T2, Mu-type opioid receptor. Description: Agonist activity at mu opioid receptor (unknown origin).

These results are taken from ChEMBL document CHEMBL4052747 (Bioorg Med Chem Lett, 2017).

Structures can show the parent of a compound that is named as a salt. The source made the active and inactive calls.

T1 sequence (P41145 whole entry): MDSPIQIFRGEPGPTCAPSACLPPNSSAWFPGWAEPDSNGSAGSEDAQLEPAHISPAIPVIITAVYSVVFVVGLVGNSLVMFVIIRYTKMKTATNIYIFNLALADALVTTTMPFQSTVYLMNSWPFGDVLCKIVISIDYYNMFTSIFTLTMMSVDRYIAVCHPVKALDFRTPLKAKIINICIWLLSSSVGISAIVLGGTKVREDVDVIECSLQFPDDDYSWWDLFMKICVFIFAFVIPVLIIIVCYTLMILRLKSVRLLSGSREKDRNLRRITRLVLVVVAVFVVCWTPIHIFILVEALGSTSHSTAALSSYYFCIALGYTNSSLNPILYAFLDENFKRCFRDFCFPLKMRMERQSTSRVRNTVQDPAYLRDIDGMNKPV
T2 sequence (P35372 whole entry): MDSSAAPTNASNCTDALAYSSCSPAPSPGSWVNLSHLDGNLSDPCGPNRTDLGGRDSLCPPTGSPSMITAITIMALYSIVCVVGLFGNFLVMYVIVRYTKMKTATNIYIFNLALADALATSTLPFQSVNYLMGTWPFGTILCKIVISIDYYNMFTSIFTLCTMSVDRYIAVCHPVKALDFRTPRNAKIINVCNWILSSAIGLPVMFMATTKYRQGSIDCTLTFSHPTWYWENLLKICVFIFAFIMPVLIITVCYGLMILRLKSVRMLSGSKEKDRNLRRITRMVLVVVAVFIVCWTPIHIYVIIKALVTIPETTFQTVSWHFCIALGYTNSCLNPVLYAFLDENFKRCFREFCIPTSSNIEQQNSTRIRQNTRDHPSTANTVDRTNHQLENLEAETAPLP

`CN(C(=O)COc1ccccc1)[C@@H]1CC[C@@]2(O)[C@H]3[C@@H](O)c4ccc(O)c5c4[C@@]2(CCN3CC2CC2)[C@H]1O5`: the EC50 (usually the concentration needed to bring the measured effect to its halfway point) in assay [1] was 5.04 nM; on Mu-type opioid receptor [2], above 30 µM. The Emax (commonly the greatest response seen or fitted, relative to the assay's reference) in assay [1] was 97%; on Mu-type opioid receptor [2], 17%.

On to `CN(C(=O)C#Cc1ccccc1)[C@@H]1CC[C@@]2(O)[C@H]3[C@@H](O)c4ccc(O)c5c4[C@@]2(CCN3CC2CC2)[C@H]1O5`, for which the EC50 worked out at 0.0799 nM in assay [1] and 0.904 µM on Mu-type opioid receptor [2]. Also, the Emax was found to be 102% in assay [1] and 95% at Mu-type opioid receptor [2].

As to `CN(C(=O)/C=C/c1cccnc1)[C@@H]1CC[C@@]2(O)[C@H]3[C@@H](O)c4ccc(O)c5c4[C@@]2(CCN3CC2CC2)[C@H]1O5`, in assay [1], the EC50 was 0.291 nM and the Emax turned out to be 101%. Besides, on Mu-type opioid receptor [2], the half-maximal effective concentration (EC50) came out at 3.76 µM and the Emax is 86%.

`Cc1ccc(/C=C/C(=O)N(C)[C@@H]2CC[C@@]3(O)[C@H]4[C@@H](O)c5ccc(O)c6c5[C@@]3(CCN4CC3CC3)[C@H]2O6)cc1`: in assay [1], the concentration giving a half-maximal response (EC50) was 0.0494 nM and the Emax amounted to 101%. Further, at Mu-type opioid receptor [2], the EC50 is 0.308 µM and the Emax turned out to be 72%.

Consider `CN(C(=O)/C=C/c1ccc(O)cc1)[C@@H]1CC[C@@]2(O)[C@H]3[C@@H](O)c4ccc(O)c5c4[C@@]2(CCN3CC2CC2)[C@H]1O5`, for which, in assay [1], the EC50 stood at 0.0953 nM and the Emax stood at 98%. Besides, on Mu-type opioid receptor [2], the 50% effective concentration (EC50) was above 30 µM and the Emax amounted to 49%.

`CN(C(=O)/C=C/c1ccccn1)[C@@H]1CC[C@@]2(O)[C@H]3[C@@H](O)c4ccc(O)c5c4[C@@]2(CCN3CC2CC2)[C@H]1O5`: in assay [1], the EC50 was 0.0283 nM and the Emax is 99%. Further, on Mu-type opioid receptor [2], the concentration giving a half-maximal response (EC50) is 2.88 µM and the Emax stood at 89%.

As for `CN(C(=O)c1ccccc1)[C@@H]1CC[C@@]2(O)[C@H]3[C@@H](O)c4ccc(O)c5c4[C@@]2(CCN3CC2CC2)[C@H]1O5`, the EC50 in assay [1] was above 100 nM; on Mu-type opioid receptor [2], above 30 µM. The Emax amounted to 23% in assay [1] and 44% at Mu-type opioid receptor [2].

For the compound `CN(C(=O)/C=C/c1cccs1)[C@@H]1CC[C@@]2(O)[C@H]3[C@@H](O)c4ccc(O)c5c4[C@@]2(CCN3CC2CC2)[C@H]1O5`, in assay [1], the EC50 stood at 0.00466 nM and the Emax is 101%. In addition, on Mu-type opioid receptor [2], the EC50 was 4.87 µM and the Emax amounted to 58%.

Consider `CN(C(=O)/C=C/c1ccoc1)[C@@H]1CC[C@@]2(O)[C@H]3[C@@H](O)c4ccc(O)c5c4[C@@]2(CCN3CC2CC2)[C@H]1O5`, for which the EC50 was 0.025 nM in assay [3], 0.025 nM in assay [1] and 1.1 µM at Mu-type opioid receptor [2]. In addition, in the assay filed under Homo sapiens, the Selectivity ratio worked out at 44000. Besides, the Emax in assay [1] was determined as 99%; on Mu-type opioid receptor [2] it was 88%. Further, the result with Rattus norvegicus and in the assay on Mus musculus was Active.

With `CN(C(=O)/C=C/c1ccccc1)[C@@H]1CC[C@@]2(O)[C@H]3[C@@H](O)c4ccc(O)c5c4[C@@]2(CCN3CC2CC2)[C@H]1O5`, in assay [1], the EC50 is 0.0222 nM and the Emax amounted to 101%. On Mu-type opioid receptor [2], the EC50 is 0.209 µM and the Emax worked out at 107%.

For `CN(C(=O)/C=C/c1ccsc1)[C@@H]1CC[C@@]2(O)[C@H]3[C@@H](O)c4ccc(O)c5c4[C@@]2(CCN3CC2CC2)[C@H]1O5`, in assay [1], the EC50 was 0.028 nM and the Emax was 101%. Moreover, at Mu-type opioid receptor [2], the EC50 amounted to 0.11 µM and the Emax was determined as 96%.

Turning to `CN(C(=O)/C=C/c1ccco1)[C@@H]1CC[C@@]2(O)[C@H]3[C@@H](O)c4ccc(O)c5c4[C@@]2(CCN3CC2CC2)[C@H]1O5`, the EC50 in assay [1] was determined as 0.122 nM; on Mu-type opioid receptor [2] it was 14.2 µM. Besides, the results for the Emax (in assay [1]; on Mu-type opioid receptor [2]) were 102% and 55%, respectively.

`CN(C(=O)CCc1ccccc1)[C@@H]1CC[C@@]2(O)[C@H]3[C@@H](O)c4ccc(O)c5c4[C@@]2(CCN3CC2CC2)[C@H]1O5`: in assay [1], the EC50 stood at 1.04 nM and the Emax amounted to 100%. For the same compound, at Mu-type opioid receptor [2], the EC50 came out at 18.3 µM and the Emax is 57%.

For `CN(C(=O)/C=C/c1ccc(Cl)cc1)[C@@H]1CC[C@@]2(O)[C@H]3[C@@H](O)c4ccc(O)c5c4[C@@]2(CCN3CC2CC2)[C@H]1O5`, in assay [1], the EC50 was 0.0288 nM and the Emax came to 99%. On Mu-type opioid receptor [2], the EC50 was found to be 0.0488 µM and the Emax is 92%.

On to `CN(C(=O)/C=C/c1ccoc1)[C@@H]1CC[C@@]2(O)[C@H]3Cc4ccc(O)c5c4[C@@]2(CCN3CC2CC2)[C@H]1O5` [NALFURAFINE HYDROCHLORIDE], for which the EC50 on Mu-type opioid receptor [4] came to 1.7 nM.

On to `CN(C(=O)CCCc1ccccc1)[C@@H]1CC[C@@]2(O)[C@H]3[C@@H](O)c4ccc(O)c5c4[C@@]2(CCN3CC2CC2)[C@H]1O5`, for which, in assay [1], the EC50 was 7.51 nM and the Emax came to 96%. On Mu-type opioid receptor [2], the EC50 amounted to 12.9 µM and the Emax was 99%.

Consider `CN(C(=O)/C=C/c1ccncc1)[C@@H]1CC[C@@]2(O)[C@H]3[C@@H](O)c4ccc(O)c5c4[C@@]2(CCN3CC2CC2)[C@H]1O5`, for which the EC50 in assay [1] stood at 0.0257 nM; at Mu-type opioid receptor [2] it was 12.1 µM. For the same compound, the figures for the Emax (in assay [1]; on Mu-type opioid receptor [2]) were 99% and 62%, respectively.

`CN(C(=O)Cc1ccccc1)[C@@H]1CC[C@@]2(O)[C@H]3[C@@H](O)c4ccc(O)c5c4[C@@]2(CCN3CC2CC2)[C@H]1O5`: in assay [1], the EC50 is above 100 nM and the Emax came to 18%. For the same compound, at Mu-type opioid receptor [2], the EC50 is above 30 µM and the Emax came to 43%.
